The values that follow are results of earlier work, collected in patent US7718667B2, “Fused aminopiperidines as dipeptidyl peptidase-IV inhibitors for the treatment or prevention of diabetes” (Merck Sharp & Dohme Corp., priority 2004, dated 2010).

SMILES strings stand for the structures.

One data set addresses T1, DPP-IV (Homo sapiens, UniProt P27487).
T1 construct: GRF is rapidly degraded in plasma to GRF[3-44]; from tissue

The subject of a further data set is mouse. To be noted: cyclophosphamide-induced neutropenia.
The next data set has as its system rats. To be noted: survival doubled from day 7.

T1 sequence (P27487 39-766 limits assumed, species assumed): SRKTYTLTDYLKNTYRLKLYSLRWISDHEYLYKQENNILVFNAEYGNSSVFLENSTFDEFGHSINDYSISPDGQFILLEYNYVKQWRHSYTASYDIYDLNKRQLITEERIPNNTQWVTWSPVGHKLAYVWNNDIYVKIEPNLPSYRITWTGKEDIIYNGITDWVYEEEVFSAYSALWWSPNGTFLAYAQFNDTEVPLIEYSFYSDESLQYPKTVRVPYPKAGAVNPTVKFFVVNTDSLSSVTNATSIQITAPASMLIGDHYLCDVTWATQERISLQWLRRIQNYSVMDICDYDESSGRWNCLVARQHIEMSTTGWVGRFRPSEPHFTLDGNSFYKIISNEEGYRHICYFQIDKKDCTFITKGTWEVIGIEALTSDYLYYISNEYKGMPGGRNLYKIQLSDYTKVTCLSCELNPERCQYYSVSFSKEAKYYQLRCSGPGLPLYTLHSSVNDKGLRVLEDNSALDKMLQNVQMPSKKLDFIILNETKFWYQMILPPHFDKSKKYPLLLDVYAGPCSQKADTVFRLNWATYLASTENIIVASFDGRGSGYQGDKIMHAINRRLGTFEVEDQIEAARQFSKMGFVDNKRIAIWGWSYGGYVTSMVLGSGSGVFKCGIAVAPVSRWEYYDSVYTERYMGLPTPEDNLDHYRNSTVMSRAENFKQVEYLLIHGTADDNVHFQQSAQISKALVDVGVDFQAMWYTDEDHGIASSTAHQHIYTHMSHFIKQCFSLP

On to `CC[C@H](C)[C@H](N)C(=O)N1CCC[C@H]1C(=O)N[C@H](C(=O)O)[C@@H](C)CC` [diprotin A], for which the “degradation of GRF in plasma to GRF[3-44]” value on DPP-IV was “prevented”. In the case of `CC(C)[C@H](N)C(=O)N1CCC[C@H]1B(O)O` [Val-Boro-Pro], in the data set on mouse, the hematopoiesis result is recorded as “stimulated hematopoiesis”. In the case of `CC(C)N1CCC(c2ccccc2)(c2ccccc2)CC1` [Prodipine, Pro-Pro-diphenyl-phosphonate], the cardiac allograft survival in the data set with rats is 14 day.
